Results reported in ChEMBL document CHEMBL5370568, “Discovery of Coixol Derivatives as Potent Anti-inflammatory Agents” (J Nat Prod, 2023).
Activity calls are given as the source filed them. The calls are words filed in the database; no cut-off is given here.

How the values were obtained:
RAW264.7 [1] = assay: Antiinflammatory activity in LPS-induced mouse RAW264.7 cells assessed as inhibition of NO production at 20 uM pretreated for 1 hr followed by LPS stimulation and measured after 24 hrs by griess reagent based assay relative to control; format: functional; conditions: time 25 hrs
[2] = Cytotoxicity against mouse RAW264.7 cells incubated for 24 hrs by MTT assay; format: toxicity, cell-based
Mus musculus [3] = assay: Antiinflammatory activity in ICR mouse model of xylene-induced auricle edema assessed as swelling degree at 40 mg/kg, IG pretreated for 1 hr followed by xylene addition and measured after 1 hr (reference value: 4.6 +/- 2 mg); format: functional; conditions: time 2 hrs
Mus musculus [4] = assay: Antiinflammatory activity in ICR mouse model of xylene-induced auricle edema assessed as swelling degree at 20 mg/kg, IG pretreated for 1 hr followed by xylene addition and measured after 1 hr (reference value: 4.6 +/- 2 mg); format: functional; conditions: time 2 hrs
Mus musculus [5] = assay: Antiinflammatory activity in ICR mouse model of xylene-induced auricle edema assessed as average weight of left ear at 20 mg/kg, IG pretreated for 1 hr followed by xylene addition and measured after 1 hr (reference value: 6.9 +/- 0.7 mg); format: functional; conditions: time 2 hrs
Mus musculus [6] = assay: Antiinflammatory activity in ICR mouse model of xylene-induced auricle edema assessed as average weight of right ear at 20 mg/kg, IG pretreated for 1 hr followed by xylene addition and measured after 1 hr (reference value: 11.5 +/- 2.1 mg); format: functional; conditions: time 2 hrs
Mus musculus [7] = assay: Antiinflammatory activity in ICR mouse model of xylene-induced auricle edema assessed as inhibition rate of ear swelling at 40 mg/kg, IG pretreated for 1 hr followed by xylene addition and measured after 1 hr relative to control; format: functional; conditions: po, time 2 hrs
Mus musculus [8] = assay: Antiinflammatory activity in ICR mouse model of xylene-induced auricle edema assessed as inhibition rate of ear swelling at 20 mg/kg, IG pretreated for 1 hr followed by xylene addition and measured after 1 hr relative to control; format: functional; conditions: po, time 2 hrs
Mus musculus [9] = assay: Antiinflammatory activity in ICR mouse model of xylene-induced auricle edema assessed as average weight of right ear at 40 mg/kg, IG pretreated for 1 hr followed by xylene addition and measured after 1 hr (reference value: 11.5 +/- 2.1 mg); format: functional; conditions: time 2 hrs
RAW264.7 [10] = assay: Antiinflammatory activity in LPS-induced mouse RAW264.7 cells assessed as inhibition of NO production by measuring downregulation of iNOS protein expression at 0.5 to 10 uM pretreated for 2 hr followed by LPS stimulation and measured after 24 hrs by Western blot analysis; format: functional, cell-based; conditions: dose 0.5-10 µM, time 26.0 hrs
[11] = Inhibition of IL-6 production in LPS-induced mouse RAW264.7 cells pretreated for 1 hr followed by LPS stimulation and measured after 24 hrs by ELISA; format: functional, cell-based
Mus musculus [12] = assay: Antiinflammatory activity in ICR mouse model of xylene-induced auricle edema assessed as average weight of left ear at 40 mg/kg, IG pretreated for 1 hr followed by xylene addition and measured after 1 hr (reference value: 6.9 +/- 0.7 mg); format: functional; conditions: time 2 hrs
[13] = Inhibition of TNF-alpha production in LPS-induced mouse RAW264.7 cells pretreated for 1 hr followed by LPS stimulation and measured after 24 hrs by ELISA; format: functional, cell-based
[14] = Inhibition of IL-1beta production in LPS-induced mouse RAW264.7 cells pretreated for 1 hr followed by LPS stimulation and measured after 24 hrs by ELISA; format: functional, cell-based
RAW264.7 [15] = assay: Antiinflammatory activity in LPS-induced mouse RAW264.7 cells assessed as inhibition of NO production pretreated for 1 hr followed by LPS stimulation and measured after 24 hrs by griess reagent based assay; format: functional, cell-based
HEK-293T = assay: Inhibition of NO production in HEK293T cells expressing iNOS assessed as effect on iNOS dimerization at 0.1 to 10 uM measured after 24 hrs by griess reagent based assay; format: functional, cell-based; conditions: Homo sapiens, dose 0.1-10 µM
RAW264.7 [16] = assay: Antiinflammatory activity in LPS-induced mouse RAW264.7 cells assessed as inhibition of NO production by measuring downregulation of iNOS protein expression at 2 to 8 uM pretreated for 2 hr followed by LPS stimulation and measured after 24 hrs by Western blot analysis; format: functional, cell-based; conditions: dose 2-8 µM, time 26.0 hrs
RAW264.7 [17] = assay: Inhibition of NFkappaB signaling pathway in LPS-induced mouse RAW264.7 cells assessed as reduction in IkappaBalpha phosphorylation pretreated for 2 hrs followed by LPS stimulation and measured after 10 mins by Western blot analysis; format: cell-based; conditions: dose 0.5-2 µM, time 130.0 min
[18] = Inhibition of IL-6 production in LPS-induced mouse RAW264.7 cells incubated for 24 hrs in presence of LPS by ELISA; format: functional, cell-based; conditions: RAW264.7, 24 h
RAW264.7 [19] = assay: Antiinflammatory activity in LPS-induced mouse RAW264.7 cells assessed as inhibition of NO production incubated for 24 hrs in presence of LPS by griess reagent based assay; format: functional, cell-based; conditions: RAW264.7, 24 h
[20] = Inhibition of TNF-alpha production in LPS-induced mouse RAW264.7 cells incubated for 24 hrs in presence of LPS by ELISA; format: functional, cell-based; conditions: RAW264.7, 24 h
Mus musculus [21] = assay: Antiinflammatory activity in ICR mouse model of xylene-induced ear edema assessed as edema inhibition rate at 25 mg/kg, po pretreated for 1 hr followed by xylene addition and measured after 0.5 hr relative to control; format: functional; conditions: time 1.5 hrs
[22] = Inhibition of IL-1beta production in LPS-induced mouse RAW264.7 cells incubated for 24 hrs in presence of LPS by ELISA; format: functional, cell-based; conditions: RAW264.7, 24 h

| Structure (SMILES) | inhibition at 20 µM (RAW264.7 [1]) [%] | IC50 at 24 h [2] [µM] | further results |
| --- | --- | --- | --- |
| COc1ccc2c(c1)oc(=O)n2CCNC(=O)/C=C/c1ccc(O)c(OC)c1 | 7.2 | > 100 | – |
| COc1ccc2c(c1)oc(=O)n2CCNC(=O)/C=C/c1ccco1 | 88.4 | > 100 | Activity (Mus musculus [3]): 3 mg; Activity (Mus musculus [4]): 3.2 mg; Activity (Mus musculus [5]): 9.5 mg; Activity (Mus musculus [6]): 12.7 mg; inhibition in vivo at 40 mg/kg (Mus musculus [7]): 35.3%; inhibition in vivo at 20 mg/kg (Mus musculus [8]): 30.9%; Activity (Mus musculus [9]): 11 mg; Activity (RAW264.7 [10]): Active; IC50 [11]: 8.8 µM; Activity (Mus musculus [12]): 8.1 mg; IC50 [13]: 7.5 µM; IC50 [14]: 11.6 µM; IC50 (RAW264.7 [15]): 2.4 µM; inhibition (HEK-293T): inactive |
| COc1ccc2c(c1)oc(=O)n2CCNC(=O)/C=C/c1cccs1 | 36.1 | > 100 | – |
| COc1ccc2c(c1)oc(=O)n2CCNC(=O)/C=C/c1ccccc1 | 30.2 | > 100 | – |
| COc1ccc2c(c1)oc(=O)n2CCNC(=O)/C=C/c1ccc(C)o1 | 43.2 | > 100 | – |
| COc1ccc2c(c1)oc(=O)n2CCNC(=O)/C=C/c1ccccc1Cl | 10.7 | > 100 | – |
| O=C(/C=C/c1ccco1)NCCn1c(=O)oc2cc(Br)ccc21 | 75.3 | 68.9 | – |
| COc1ccc2c(c1)oc(=O)n2CCNC(=O)/C=C/c1ccc(C(F)(F)F)cc1 | 42 | 69.5 | – |
| COc1ccc2c(c1)oc(=O)n2CCNC(=O)/C=C/c1ccc(Cl)cc1 | 38.3 | > 100 | – |
| COc1ccc2c(c1)oc(=O)n2CCNC(=O)/C=C/c1cc2ccccc2o1 | 35.1 | > 100 | – |
| COc1ccc2c(c1)oc(=O)n2CCNC(=O)/C=C/c1ccccc1OC | 6.4 | 80.2 | – |
| COc1ccc2c(c1)oc(=O)n2CCNC(=O)/C=C/c1ccccn1 | 42.8 | > 100 | – |
| COc1ccc2[nH]c(=O)oc2c1 [COIXOL] | 7.4 | > 100 | IC50 [11]: 48.9 µM; IC50 [13]: 31.2 µM; IC50 [14]: 66.4 µM |
| COc1ccc2c(c1)oc(=O)n2CCNC(=O)/C=C/c1ccc(C)cc1 | 30.2 | > 100 | – |
| COc1ccc2c(c1)oc(=O)n2CCNC(=O)/C=C/c1ccc([N+](=O)[O-])o1 | 105 | 38.8 | Activity (Mus musculus [3]): 2 mg; Activity (Mus musculus [4]): 2.4 mg; Activity (Mus musculus [5]): 7.2 mg; Activity (Mus musculus [6]): 9.7 mg; inhibition in vivo at 40 mg/kg (Mus musculus [7]): 56.6%; inhibition in vivo at 20 mg/kg (Mus musculus [8]): 47.1%; Activity (Mus musculus [9]): 10.5 mg; IC50 [11]: 10.3 µM; Activity (RAW264.7 [16]): Active; inhibition (RAW264.7 [17]): Dose-Dependent Effect; Activity (Mus musculus [12]): 8.5 mg; IC50 [13]: 10.9 µM; IC50 [14]: 11.8 µM; IC50 (RAW264.7 [15]): 0.8 µM; inhibition (HEK-293T): inactive |
| COc1ccc2c(c1)oc(=O)n2CCNC(=O)/C=C/c1ccc(OC)c(OC)c1 | 8.9 | > 100 | – |
| COc1ccc2c(c1)oc(=O)n2CCNC(=O)c1ccco1 | 29.4 | > 100 | – |
| COc1ccc2oc(=O)n(CCNC(=O)/C=C/c3ccco3)c2c1 | 56.2 | > 100 | – |
| COc1ccc2c(c1)oc(=O)n2CCNC(=O)/C=C/c1ccoc1 | 30.3 | > 100 | – |
| COc1ccc2c(c1)oc(=O)n2CCNC(=O)/C=C/c1ccc(O)cc1 | 45.4 | 59 | – |
| Cc1ccc(-c2cc(C(F)(F)F)nn2-c2ccc(S(N)(=O)=O)cc2)cc1 [CELECOXIB] | 62.4 | – | Activity (Mus musculus [4]): 3.4 mg; Activity (Mus musculus [5]): 8.3 mg; IC50 [18]: 36 µM; Activity (Mus musculus [6]): 11.6 mg; inhibition in vivo at 20 mg/kg (Mus musculus [8]): 27.4%; IC50 (RAW264.7 [19]): 17.9 µM; IC50 [20]: 41.2 µM; IC50 [11]: 13.7 µM; inhibition in vivo at 25 mg/kg (Mus musculus [21]): 30.9%; IC50 [13]: 12.2 µM; IC50 [14]: 14.6 µM; IC50 (RAW264.7 [15]): 21.1 µM; IC50 [22]: 17.9 µM |
| COc1ccc2c(c1)oc(=O)n2CCNC(=O)/C=C/c1cccc(Cl)c1 | 5.2 | > 100 | – |
| COc1ccc2c(c1)oc(=O)n2CCNC(=O)/C=C/c1ccc(Br)o1 | 25.8 | > 100 | – |
| COc1ccc(C(C)=O)c(OCCNC(=O)/C=C/c2cc(OC)c(OC)c(OC)c2)c1 | 88.8 | – | – |
| COc1ccc2c(c1)oc(=O)n2CCNC(=O)/C=C/c1ccc(F)cc1 | 4.4 | > 100 | – |
| COc1cccc(/C=C/C(=O)NCCn2c(=O)oc3cc(OC)ccc32)c1 | 9.3 | > 100 | – |
| COc1ccc2c(c1)oc(=O)n2CCNC(=O)/C=C/c1cc(OC)c(OC)c(OC)c1 | 51.1 | > 100 | IC50 (RAW264.7 [15]): 26 µM |
| COc1ccc(/C=C/C(=O)NCCn2c(=O)oc3cc(OC)ccc32)cc1 | 45.9 | 68.8 | – |
| O=C(/C=C/c1ccco1)NCCn1c(=O)oc2ccccc21 | 63.2 | > 100 | – |
